Data taken from patent US5656600A, “α-ketoamide derivatives as inhibitors of thrombosis” (Corvas International, Inc., priority 1993, dated 1997).

Tested on: FeCl3 Model of Thrombosis in Rats
Experiment: Rat model of FeCl3-induced platelet-dependent arterial thrombosis
Type: in vivo
Settings: for Incidence of Occlusion: occluded/total animals
Excerpt: Kurz, K. D., Main, B. W., and Sandusky, G. E., Thromb. Res., 60:269-280 (1990). In this model a platelet-rich, occlusive thrombus is formed in a segment of the rat carotid artery treated with a fresh solution of FeCl3 absorbed to a piece of filter paper. The FeCl3 is thought to diffuse into the treated segment of artery and causes de-endothelialization resulting in thrombus formation. The effect of a test compound on the incidence of occlusive thrombus formation following the application of the FeCl3 is monitored by ultrasonic flowtometry and is used as the primary end point. The use of flowtometry is a modification of the original procedure in which thermal detection of clot formation was employed. Kurz, K. D., Main, B. W., and Sandusky, G. E., Thromb. Res., 60:269-280 (1990).
Male Harlan Sprague Sawley rats (420-450 g) were acclimated at least 72 hours prior to use and fasted for 12 hours prior to surgery with free access to water. The animals were prepared, anesthetized with Nembutal with catheters for blood pressure monitoring, drug and anesthesia delivery being implanted as described above. The left carotid artery was exposed and isolated by making a midline cervical incision followed by blunt dissection and spreading techniques to separate a 2 cm segment of the vessel from the carotid sheath. A silk suture is inserted under the proximal and distal ends of the isolated vessel to provide clearance for the placement of a ultrasonic flow probe (Transonic) around the proximal end of the vessel. The probe is then secured with a stationary arm.
The test compounds were administered as described above after placement of the flow probe and stabilization of the preparation for a period of 60 minutes prior to the thrombogenic stimulus. At t=0, a 3 mm diameter piece of filter paper (Whatman #3) soaked with 10 μL of a 35% solution of fresh FeCl3 (in water) was applied the segment of isolated carotid artery distal to the flow probe. Blood pressure, blood flow, heart rate, and respiration were monitored for 60 minutes.
The incidence of occlusion (defined as the attainment of zero blood flow) was recorded as the primary end point. Following the 60 minute observation period the flow probe was removed and the area cleared of all excess fluid. The distal and proximal sutures were tied off and arterial clamps placed on the far proximal and distal ends of the segment. The isolated segment was cut out, blotted dry on filter paper and weighed. The segment was re-weighed following removal of the clot and the difference recorded as total % clot (see above). Weights were recorded on only those segments which had detectable thrombus. Following the procedure the animals were euthanized as described above.

[1] = 0.1 mg/kg i.v. bolus + 40 μg/kg/min i.v. infusion

For “(D--Phe)--Pro--Arg--Pro--(Gly4 --Asn--Gly--Asp--Phe--Glu--Glu--IIe--Pro--Glu--Glu--Tyr--Leu--OH [Compound 25]”, the “% Clot” value (0.1 mg/kg i.v. bolus + 5 μg/kg/min i.v. infusion, mean ± S.E.M., segments with detectable thrombus) was 70.1 ± 5.5%, the “Incidence of Occlusion” value (0.1 mg/kg i.v. bolus + 5 μg/kg/min i.v. infusion) was 3/3 and the “% Clot” value (0.1 mg/kg i.v. bolus + 10 μg/kg/min i.v. infusion, mean ± S.E.M., segments with detectable thrombus) was 59.42 ± 4.34%. For the same substance, the “Incidence of Occlusion” value (0.1 mg/kg i.v. bolus + 10 μg/kg/min i.v. infusion) was 5/6, the “% Clot” value (0.1 mg/kg i.v. bolus + 20 μg/kg/min i.v. infusion, mean ± S.E.M., segments with detectable thrombus) was 45.3 ± 11.63% and the “Incidence of Occlusion” value (0.1 mg/kg i.v. bolus + 20 μg/kg/min i.v. infusion) was 5/6. The “% Clot” value [1] was 0% and the “Incidence of Occlusion” value [1] was 0/6.
